The values below come from patent publication US11096942B2, “Heterocyclic compounds and uses thereof” (Celgene CAR LLC, priority 2010, dated 2021).

Assay [1] addresses EGFR L858R/T790M (H1975 cells) (Homo sapiens (Human), UniProt P00533, L858R/T790M). Description: Phospho-EGFR signaling immunoblot (1 hr), H1975 cells. The assay is classed as cell-based. Conditions: WT EGFR (A431) vs H1975. Here is the method:
(§1) A431 human epidermoid carcinoma, H1975 human NSCLC and HCC827 human NSCLC adenocarcinoma cells were obtained from the American Type Culture Center (Manassas, Va.). A431 cells were grown in DMEM (Invitrogen, Carlsbad, Calif.) supplemented with 10% FBS (HyClone, South Logan, Utah) and 1% Penicillin-Streptomycin (P/S, Lonza, Walkersville, Md.).
All primary antibodies were obtained from Cell Signaling (Danvers, Mass.) and used at 1:1000. Secondary antibodies were used at 1:10,000. Goat anti-mouse IgG IRDye 800CW antibody was obtained from LiCor Biosciences (Lincoln, Nebr.) and goat anti-rabbit IgG Alexa Fluor 680 was obtained from Invitrogen.
Cells were grown in 12-well plates (Corning, Coring, N.Y.) to 90% confluence and then incubated in low-serum (0.1% FBS) media for 16-18 hr. […] A431 cells were then stimulated with 50 ng/ml EGF (Peprotech, Rocky Hill, N.J.) for 15 min. After treatment, cell monolayers were washed with cold PBS (Invitrogen) and immediately lysed by scrapping into 60 uL cold Cell Extraction Buffer (Invitrogen) supplemented with Complete Protease inhibitors (Roche, Indianapolis, Ind.) and PhosphoSTOP (Roche) phosphatase inhibitors.
Phospho-protein signals were quantitated using Odyssey Infrared Imaging (Li-Cor Biosciences).
To assess phosphor-EGFR signaling, blots were probed with rabbit anti-Phospho-EGFR (Y1068) and mouse total anti-EGFR antibodies. Phospho-EGFR signal was normalized to total EGFR expression for each sample. […] Normalized data was fitted using a sigmoidal curve analysis program (Graph Pad Prism version 5) with variable Hill slope to determine the EC50 values.
On the technique in general: A western blot detects proteins with antibodies after separation by electrophoresis.

For assay [2], the system named is HCC827 cells (EGFR delE746-A750). The assay can be described thus: Cell proliferation (CellTiter Glo, 72 hr), HCC827 cells. The format is cell-based, human. As to the method:
as §1
(§2) Cells were plated in Growth Media supplemented with 5% FBS and 1% P/S at a density of 3,000 cells per well in 96 well tissue culture plates (Corning). […] Growth inhibition (GI50) values were determined by Graph Pad Prism.

Assay [3] relates to H1975 cells (EGFR L858R/T790M). Description: Cell proliferation (CellTiter Glo, 72 hr), H1975 cells. The assay is classed as cell-based, human. Here is the method: as §1, §2
(In general: In ATP-based viability assays light output follows the ATP content of the culture.)

Where [4] appears, read: proliferation, WT EGFR (A431) vs HCC827.
Setting [5] is: proliferation, WT EGFR (A431) vs H1975.

Like-named read-outs stand apart in the source and are kept apart here.

As to `C=CC(=O)Nc1cccc(Oc2nc(Nc3ccc(N4CCOCC4)cc3OC)ncc2C(F)(F)F)c1` [Compound I-1, N-(3-(2-(2-methoxy-4-morpholinophenylamino)-5-(trifluoromethyl)pyrimidin-4-yloxy)phenyl)acrylamide], the entries for the “Ratio WT/mutant” value in assay [1], in assay [2] (setting [4]) and in assay [3] (setting [5]) were over 50, over 15 and over 15, respectively.

`C=CC(=O)Nc1cccc(Oc2nc(Nc3ccc(N4CCN(C(=O)CO)CC4)cc3OC)ncc2Cl)c1` [Compound I-3, N-(3-(5-chloro-2-(4-(4-(2-hydroxyacetyl)piperazin-1-yl)-2-methoxyphenylamino)pyrimidin-4-yloxy)phenyl)acrylamide]: the “Ratio WT/mutant” value in assay [1] is given as over 5; in assay [2] (setting [4]) it was over 45; in assay [3] (setting [5]) it was over 5.

Regarding `C=CC(=O)Nc1cccc(Oc2nc(Nc3ccc(N4CCOCC4)cc3OC)ncc2Cl)c1` [Compound I-5, N-(3-(5-chloro-2-(2-methoxy-4-morpholinophenylamino)pyrimidin-4-yloxy)phenyl)acrylamide], the “Ratio WT/mutant” value in assay [1] is given as over 30; in assay [2] (setting [4]), over 20; in assay [3] (setting [5]), over 5.

Regarding `C=CC(=O)Nc1cccc(Nc2nc(Nc3ccc(N4CCN(C(=O)CO)CC4)cc3OC)ncc2C(F)(F)F)c1` [Compound I-6, N-(3-(2-(4-(4-(2-hydroxyacetyl)piperazin-1-yl)-2-methoxyphenylamino)-5-(trifluoromethyl)pyrimidin-4-ylamino)phenyl)acrylamide], the “Ratio WT/mutant” value was over 20 in assay [1], over 40 in assay [2] (setting [4]) and over 10 in assay [3] (setting [5]).

Take `C=CC(=O)Nc1cccc(Nc2nc(Nc3ccc(N4CCCN(C(C)=O)CC4)cc3OC)ncc2C(F)(F)F)c1` [Compound I-7, N-(3-(2-(4-(4-acetyl-1,4-diazepan-1-yl)-2-methoxyphenylamino)-5-(trifluoromethyl)pyrimidin-4-ylamino)phenyl)acrylamide]: the “Ratio WT/mutant” value in assay [1] is over 5; in assay [2] (setting [4]) it was over 10; in assay [3] (setting [5]) it was over 1.

As for `C=CC(=O)Nc1cccc(Oc2nc(Nc3ccc(N4CCN(C(C)=O)CC4)cc3OC)ncc2Cl)c1` [Compound I-9, N-(3-(2-(4-(4-acetylpiperazin-1-yl)-2-methoxyphenylamino)-5-chloropyrimidin-4-yloxy)phenyl)acrylamide], the “Ratio WT/mutant” value in assay [2] (setting [4]) was over 50; in assay [3] (setting [5]) it was over 5.

Turning to `C=CC(=O)Nc1cccc(Oc2nc(Nc3ccc(N4CCN(C(C)=O)CC4)cc3OC)ncc2C(F)(F)F)c1` [Compound I-10, N-(3-(2-(4-(4-acetylpiperazin-1-yl)-2-methoxyphenylamino)-5-(trifluoromethyl)pyrimidin-4-yloxy)phenyl)acrylamide], the results for the “Ratio WT/mutant” value in assay [2] (setting [4]) and in assay [3] (setting [5]) were over 20 and over 1, respectively.

With `C=CC(=O)Nc1cccc(Oc2nc(Nc3ccc(N4CCOCC4)cc3OC(F)F)ncc2C(F)(F)F)c1` [Compound I-13, N-(3-(2-(2-(difluoromethoxy)-4-morpholinophenylamino)-5-(trifluoromethyl)pyrimidin-4-yloxy)phenyl)acrylamide], the figures for the “Ratio WT/mutant” value in assay [2] (setting [4]) and in assay [3] (setting [5]) were over 50 and over 10, respectively.

`C=CC(=O)Nc1cccc(Nc2nc(Nc3ccc(N4CCOCC4)cc3OC)ncc2Cl)c1` [Compound I-15, N-(3-(5-chloro-2-(2-methoxy-4-morpholinophenylamino)pyrimidin-4-ylamino)phenyl)acrylamide]: the “Ratio WT/mutant” value in assay [2] (setting [4]) is listed as over 10; in assay [3] (setting [5]), over 1.

Turning to `C=CC(=O)Nc1cccc(Oc2nc(Nc3ccc(N4CCN(C(=O)OC(C)(C)C)CC4)cc3OCC)ncc2Cl)c1` [Compound I-18, tert-butyl 4-(4-(4-(3-acrylamidophenoxy)-5-chloropyrimidin-2-ylamino)-3-ethoxyphenyl)piperazine-1-carboxylate], the figures for the “Ratio WT/mutant” value in assay [2] (setting [4]) and in assay [3] (setting [5]) were over 5 and over 1, respectively.

With `C=CC(=O)Nc1cccc(Nc2nc(Nc3ccc(N4CCCN(C(=O)C(F)(F)F)CC4)cc3OC)ncc2C(F)(F)F)c1` [Compound I-19, N-(3-(2-(2-methoxy-4-(4-(2,2,2-trifluoroacetyl)-1,4-diazepan-1-yl)phenylamino)-5-(trifluoromethyl)pyrimidin-4-ylamino)phenyl)acrylamide], the “Ratio WT/mutant” value in assay [2] (setting [4]) is listed as over 10; in assay [3] (setting [5]), over 5.

For the molecule `C=CC(=O)Nc1cccc(Oc2nc(Nc3ccc(N4CCN(C(=O)OC)CC4)cc3OC)ncc2C(F)(F)F)c1` [Compound I-20, methyl 4-(4-(4-(3-acrylamidophenoxy)-5-(trifluoromethyl)pyrimidin-2-ylamino)-3-methoxyphenyl)piperazine-1-carboxylate], the “Ratio WT/mutant” value was over 15 in assay [2] and over 5 in assay [3].

For `C=CC(=O)Nc1cccc(Oc2nc(Nc3ccc(N4CCN(C(=O)CC(C)(C)C)CC4)cc3OC)ncc2Cl)c1` [Compound I-23, N-(3-(5-chloro-2-(4-(4-(3,3-dimethylbutanoyl)piperazin-1-yl)-2-methoxyphenylamino)pyrimidin-4-yloxy)phenyl)acrylamide], the “Ratio WT/mutant” value in assay [2] (setting [4]) is over 20; in assay [3] (setting [5]), over 1.

Take `C=CC(=O)Nc1cccc(Oc2nc(Nc3ccc(N4CCN(S(N)(=O)=O)CC4)cc3OC)ncc2C(F)(F)F)c1` [Compound I-27, N-(3-(2-(2-methoxy-4-(4-sulfamoylpiperazin-1-yl)phenylamino)-5-(trifluoromethyl)pyrimidin-4-yloxy)phenyl)acrylamide]: the “Ratio WT/mutant” value in assay [2] (setting [4]) is on record as over 10; in assay [3] (setting [5]), over 1.

As for `C=CC(=O)Nc1cccc(Nc2nc(Nc3ccc(N4CCN(C(=O)NC)CC4)cc3OC)ncc2C(F)(F)F)c1` [Compound I-28, 4-(4-(4-(3-acrylamidophenylamino)-5-(trifluoromethyl)pyrimidin-2-ylamino)-3-methoxyphenyl)-N-methylpiperazine-1-carboxamide], the figures for the “Ratio WT/mutant” value in assay [2] (setting [4]) and in assay [3] (setting [5]) were over 50 and over 5, respectively.

Take `C=CC(=O)Nc1cccc(Nc2nc(Nc3ccc(N4CCN(C(=O)OC)CC4)cc3OC)ncc2C(F)(F)F)c1` [Compound I-29, methyl 4-(4-(4-(3-acrylamidophenylamino)-5-(trifluoromethyl)pyrimidin-2-ylamino)-3-methoxyphenyl)piperazine-1-carboxylate]: the results for the “Ratio WT/mutant” value in assay [2] (setting [4]) and in assay [3] (setting [5]) were over 15 and over 10, respectively.

With `C=CC(=O)Nc1cccc(Nc2nc(Nc3ccc(N4CCN(C(=O)CC)CC4)cc3OC)ncc2C(F)(F)F)c1` [Compound I-35, N-(3-(2-(2-methoxy-4-(4-propionylpiperazin-1-yl)phenylamino)-5-(trifluoromethyl)pyrimidin-4-ylamino)phenyl)acrylamide], the “Ratio WT/mutant” value is on record as over 25 in assay [2] (setting [4]) and over 10 in assay [3] (setting [5]).

Consider `C=CC(=O)Nc1cccc(Oc2nc(Nc3ccc(N4CCOCC4)cc3OC(F)F)ncc2Cl)c1` [Compound I-36, N-(3-(5-chloro-2-(2-(difluoromethoxy)-4-morpholinophenylamino)pyrimidin-4-yloxy)phenyl)acrylamide], for which the “Ratio WT/mutant” value in assay [2] (setting [4]) is listed as over 50; in assay [3] (setting [5]), over 25.

On to `C=CC(=O)Nc1cccc(Oc2nc(Nc3ccc(N4CCCOCC4)cc3OC)ncc2Cl)c1` [Compound I-37, N-(3-(5-chloro-2-(2-methoxy-4-(1,4-oxazepan-4-yl)phenylamino)pyrimidin-4-yloxy)phenyl)acrylamide], for which the “Ratio WT/mutant” value was over 10 in assay [2] (setting [4]) and over 1 in assay [3] (setting [5]).

For `C=CC(=O)Nc1cccc(Nc2nc(Nc3ccc(N4CCCOCC4)cc3OC)ncc2C(F)(F)F)c1` [Compound I-38, N-(3-(2-(2-methoxy-4-(1,4-oxazepan-4-yl)phenylamino)-5-(trifluoromethyl)pyrimidin-4-ylamino)phenyl)acrylamide], the “Ratio WT/mutant” value in assay [2] (setting [4]) is recorded as over 5; in assay [3] (setting [5]) it was over 1.

As to `C=CC(=O)Nc1cccc(Oc2nc(Nc3ccc(N4CCCN(C(=O)OC(C)(C)C)CC4)cc3OC)ncc2C(F)(F)F)c1` [Compound I-39, tert-butyl 4-(4-(4-(3-acrylamidophenoxy)-5-(trifluoromethyl)pyrimidin-2-ylamino)-3-methoxyphenyl)-1,4-diazepane-1-carboxylate], the “Ratio WT/mutant” value in assay [2] (setting [4]) is given as over 1; in assay [3] (setting [5]), under 1.

On to `C=CC(=O)Nc1cccc(Nc2nc(Nc3ccc(N4CCN(C(=O)OC(C)(C)C)[C@H](C(=O)OC)C4)cc3OC)ncc2C(F)(F)F)c1` [Compound I-50, (S)-1-tert-butyl 2-methyl 4-(4-(4-(3-acrylamidophenylamino)-5-(trifluoromethyl)pyrimidin-2-ylamino)-3-methoxyphenyl)piperazine-1,2-dicarboxylate], for which the results for the “Ratio WT/mutant” value in assay [2] (setting [4]) and in assay [3] (setting [5]) were over 50 and over 10, respectively.
